Here are results for 103 molecules from PubChem BioAssay AID1033 (Sanford-Burnham Center for Chemical Genomics, 2008).

The assay deals with Chaperone protein DnaK (Escherichia coli (strain K12)) (UniProt P0A6Y8). The assay is described as follows: E. coli DnaK SBD ligand binding – biophysical, NMR, chaperone (AID 1033). The following applies: Purified DnaK SBD.

SMILES strings stand for the structures. Activity calls are given as the source filed them. The rule behind the calls is not given here.

Chain of Chaperone protein DnaK (Escherichia coli (strain K12)) (P0A6Y8 whole entry, looked up): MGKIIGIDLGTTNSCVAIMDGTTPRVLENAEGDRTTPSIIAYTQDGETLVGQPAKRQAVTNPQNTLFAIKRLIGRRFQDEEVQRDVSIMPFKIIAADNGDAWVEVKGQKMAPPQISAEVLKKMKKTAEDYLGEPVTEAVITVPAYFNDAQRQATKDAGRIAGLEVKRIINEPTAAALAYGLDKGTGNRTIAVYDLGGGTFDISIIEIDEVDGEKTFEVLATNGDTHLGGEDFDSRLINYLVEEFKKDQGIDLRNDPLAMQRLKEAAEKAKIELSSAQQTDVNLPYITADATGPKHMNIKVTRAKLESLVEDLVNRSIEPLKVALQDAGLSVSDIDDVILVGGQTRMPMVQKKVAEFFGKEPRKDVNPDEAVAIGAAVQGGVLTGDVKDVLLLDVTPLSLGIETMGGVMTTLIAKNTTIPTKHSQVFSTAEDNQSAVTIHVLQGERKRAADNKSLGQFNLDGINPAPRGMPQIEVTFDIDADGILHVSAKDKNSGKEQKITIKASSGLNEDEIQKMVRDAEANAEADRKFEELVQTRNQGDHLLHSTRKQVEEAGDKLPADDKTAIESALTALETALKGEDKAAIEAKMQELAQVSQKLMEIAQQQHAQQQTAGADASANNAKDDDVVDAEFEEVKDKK

One may read the Kd as the free concentration of one partner at which half of the binding sites on the other are occupied at equilibrium, for simple one-to-one binding. `COc1ccc(NC(=O)/C=N/O)cc1`: the Kd is > 4 mM (inactive).
As for `O=C(O)C1CCN(S(=O)(=O)c2cccs2)CC1`, the figure is > 4 mM (inactive).
In the case of `CC1=NN(c2ccc(C)cc2)C(=O)C1`, the Kd is > 4 mM (inactive).
For `CN(C)Cc1nc2c([nH]1)c(=O)[nH]c(=O)n2C` the value was > 4 mM (inactive).
As for `C[C@@H]1O[C@@H](O[C@H]2CC[C@]3(C=O)C4CC[C@]5(C)[C@@H](C6=CC(=O)OC6)CC[C@]5(O)C4CC[C@]3(O)C2)[C@H](O)[C@H](O)[C@H]1O` (stereo partly drawn), the figure is > 4 mM (inactive); as for `Cc1[nH]c2ccccc2c1C=Nn1cncn1`, > 4 mM (inactive).
`NC1CN2CCC1CC2` (stereo not drawn): the Kd was > 4 mM (inactive).
As for `O=C(O)c1ccc2c(c1)OCCCO2`, the figure is > 4 mM (inactive).
For the molecule `Cc1ccc2cc(CO)ccc2n1`, the Kd is > 4 mM (inactive).
On to `CN1CCN(C(=S)NC(=O)c2ccn(C)n2)CC1`, for which the Kd is > 4 mM (inactive).
As for `CNS(=O)(=O)c1cc(OC)ccc1OC`, the Kd was > 4 mM (inactive).
For `CCOc1cc(C)c(Cl)cc1S(=O)(=O)N(C)C`, the Kd was > 4 mM (inactive).
As for `Cc1nn(-c2ccccc2)nc1CN`, the figure is > 4 mM (inactive).
As to `O=C(NCc1ccncc1)c1cccc(F)c1`, the Kd was > 4 mM (inactive).
Turning to `C[N+](C)(C)CC(=O)[O-]`, the Kd was > 4 mM (inactive).
On to `CC(C)=CC(=O)Nc1ccccc1Br`, for which the Kd is > 4 mM (inactive).
As for `CC(=O)NCC1(c2ccccc2)CCOCC1`, the figure is > 4 mM (inactive).
On to `Cc1n[nH]c(=O)nc1N1CCN(c2ccccc2)CC1`, for which the Kd is > 4 mM (inactive).
For `O=c1[nH]c2sc3c(c2c2ncnn12)CCCC3` the value was > 4 mM (inactive); for `O=C1CSC(=Nc2ccc(Cl)cc2)N1`, > 4 mM (inactive).
`CCc1ccccc1NC(=O)c1ccoc1C`: the Kd is > 4 mM (inactive).
With `CN1CCC(NC(=O)c2cccnc2)CC1`, the Kd is > 4 mM (inactive).
Consider `O=C(c1ccccc1)N1CCOCC1`, for which the Kd is > 4 mM (inactive).
Take `Cc1nc2ccc(C(=O)O)cc2[nH]1`: the Kd is > 4 mM (inactive).
With `CN1C(=O)Cc2cc(S(N)(=O)=O)ccc21`, the Kd is > 4 mM (inactive).
For the molecule `CC(=O)Nc1nnc(-c2ccncc2)s1`, the Kd was > 4 mM (inactive).
As for `Cn1cc(Cl)c(C(=O)Nc2ccncc2)n1`, the figure is > 4 mM (inactive); as for `CC(=O)NC(=S)Nc1cccc(C(=O)O)c1C`, > 4 mM (inactive); as for `CC(C)C(C)/C=C/C(C)C1CCC2C3=CC=C4CC(O)CCC4(C)C3CCC21C` (stereo not drawn), > 4 mM (inactive).
Take `Cc1cc(C)c(C(N)=O)c(=S)[nH]1`: the Kd was > 4 mM (inactive).
Regarding `O=C(O)c1ccc(-c2ccccn2)s1`, the Kd was > 4 mM (inactive).
As for `O=C(NC1=NCCS1)c1cccc(F)c1`, the figure is > 4 mM (inactive).
For `c1ccc2c(c1)nnn2C1CCNCC1` the value was > 4 mM (inactive).
As for `Cn1cccc1C=C1C(=O)NC(=S)NC1=O`, the figure is > 4 mM (inactive); as for `CC(=O)Nc1ccccc1OCC(N)=O`, > 4 mM (inactive); as for `Nc1ccc(N2CCOCC2)c(Cl)c1`, > 4 mM (inactive).
As for `C/C=C/COc1nc2c(c(=O)n(C)c(=O)n2C)n1C`, the Kd is > 4 mM (inactive).
For `Cc1cc(C)nc(/N=C(/N)N2CCN(C)CC2)n1` the value was > 4 mM (inactive); for `COC1=CC23CCCN2CCc2cc4c(cc2C3C1O)OCO4` (stereo not drawn), > 4 mM (inactive).
As to `Cc1ccc(C)n1-c1ccc(C(=O)N2CCOCC2)cc1`, the Kd was > 4 mM (inactive).
For `O=C(Nc1ccccc1Cl)c1cnccn1` the value was > 4 mM (inactive); for `COC(=O)C1CCN(c2ccc(Cl)nn2)CC1`, > 4 mM (inactive).
Turning to `CC1SC(=NC(=O)c2ccco2)NC1=O` (stereo not drawn), the Kd is > 4 mM (inactive).
For `CC(=O)OC1CCC2(C)C(=CC=C3C2CCC2(C)C3CCC2C(C)/C=C/C(C)C(C)C)C1(C)C` (stereo not drawn) the value was > 4 mM (inactive); for `Cc1cc(C)c(-c2cc(C(F)(F)F)no2)c(=O)[nH]1`, > 4 mM (inactive); for `OC1CCNC2CCCCC12` (stereo not drawn), > 4 mM (inactive).
As to `CC1(C)C(=O)CC[C@@]2(C)C1C[C@@H](O)[C@@]1(C)C3=CC(=O)O[C@@H](c4ccoc4)[C@]3(C)CCC21` (stereo partly drawn), the Kd was > 4 mM (inactive).
For `COc1cc2c(cc1OC)[C@@]13CCN4CC5=CCOC6CC(=O)N2C1[C@H]6[C@H]5C[C@H]43` (stereo partly drawn) the value was > 4 mM (inactive).
Take `Cc1cc(SCCF)n2ncnc2n1`: the Kd is > 4 mM (inactive).
Regarding `O=C(O)c1csc(-c2cccnc2)n1`, the Kd was > 4 mM (inactive).
On to `Cc1cc(C(=O)N2CCC3(CC2)OCCO3)cs1`, for which the Kd is > 4 mM (inactive).
For the molecule `Nc1nc(SCc2ccccc2)ns1`, the Kd is > 4 mM (inactive).
For `Cc1nc(-c2ccccc2)ncc1CO` the value was > 4 mM (inactive); for `CC1=C(/C=C/C(C)=C/C=C/C(C)=C/C=C/C=C(C)/C=C/C=C(C)/C=C/C2=C(C)CCCC2(C)C)C(C)(C)CCC1`, > 4 mM (inactive).
On to `CC(=O)c1c(C)nc(C)nc1NC(=O)C(C)C`, for which the Kd is > 4 mM (inactive).
In the case of `Cn1c(=O)c2[nH]cnc2n(C)c1=O`, the Kd was > 4 mM (inactive).
As for `COc1ccc(N/C(N)=N\c2nc(C)cc(C)n2)cc1`, the figure is > 4 mM (inactive); as for `NCc1ccc2c(c1)OCO2`, > 4 mM (inactive).
Turning to `CC(=O)N(c1ccccc1)C1C=CS(=O)(=O)C1` (stereo not drawn), the Kd was > 4 mM (inactive).
Consider `O=C(O)/C=C/C(=O)Nc1ccccc1C(F)(F)F`, for which the Kd is > 4 mM (inactive).
For `CC(=O)C1CC[C@H]2C3CC[C@H]4C[C@H](O)CC[C@]4(C)C3CC[C@]12C` (stereo partly drawn) the value was > 4 mM (inactive); for `NC12CC3CC(C1)CC(C(=O)O)(C3)C2`, > 4 mM (inactive).
On to `CN1C(=O)c2ccc(C(=O)NCc3ccccc3)cc2C1=O`, for which the Kd was > 4 mM (inactive).
As for `NC1=NC(=O)C(Cc2cccc([N+](=O)[O-])c2)S1` (stereo not drawn), the figure is > 4 mM (inactive).
As for `CNC(=S)N1CCN(C(=O)c2ccco2)CC1`, the figure is > 4 mM (inactive); as for `CC(=O)Oc1c2c(c3c(c1CC=C(C)C)O[C@]14C(=C[C@@H]5CC1C(C)(C)OC4(C/C=C(\C)C(=O)O)C5=O)C3=O)OC(C)(CCC=C(C)C)C=C2` (stereo partly drawn), > 4 mM (inactive).
On to `COc1c(-c2ccccc2)oc2c(OC)cccc2c1=O`, for which the Kd was > 4 mM (inactive).
As for `O=C(O)c1ccccc1C(=O)Nc1ccccc1`, the figure is > 4 mM (inactive); as for `NC(=O)CSc1nc2ccccc2[nH]1`, > 4 mM (inactive).
For `CC(=O)Nc1ccc(NC(=O)c2ccncc2)cc1` the value was > 4 mM (inactive).
As for `NC(=O)c1cn(-c2ccccc2)nc1-c1cccnc1`, the Kd was > 4 mM (inactive).
For `O=S(=O)(Cc1ccccc1)N1CCCCCC1` the value was > 4 mM (inactive); for `CSc1cc(C)[nH]c(=O)n1`, > 4 mM (inactive).
For the molecule `Cc1nn(C)c(C)c1C(=O)O`, the Kd is > 4 mM (inactive).
As for `CNC(=O)C1CCCN(S(C)(=O)=O)C1` (stereo not drawn), the figure is > 4 mM (inactive).
As for `O=C(O)c1ccc(Nc2nncc(=O)[nH]2)cc1`, the figure is > 4 mM (inactive); as for `NC(=O)c1ccccc1N=Cc1ccco1`, > 4 mM (inactive); as for `O=C(O)CCCCCCCC(=O)O`, > 4 mM (inactive).
For the molecule `c1ccc2c(NC3=NCCS3)cccc2c1`, the Kd is > 4 mM (inactive).
For `CC12CCCC(O)(C1)C1CC(C)(C)C1CC2` (stereo not drawn) the value was > 4 mM (inactive); for `Oc1ccc2c(c1)OCC1(O)Cc3cc(O)c(O)cc3C21` (stereo not drawn), > 4 mM (inactive).
For `CN(c1ccc(C(=O)N2CCCCC2)cc1)S(C)(=O)=O` the value was > 4 mM (inactive); for `Cc1cc(=O)[nH]c(NCc2cccnc2)n1`, > 4 mM (inactive); for `OC1CC2CCC1C2` (stereo not drawn), > 4 mM (inactive).
As to `COc1ccc(-c2coc3cc(O)ccc3c2=O)c(O)c1O`, the Kd is > 4 mM (inactive).
As for `O=C(O)c1ccc2nccnc2c1`, the figure is > 4 mM (inactive); as for `Cc1cc(C)n(-c2nc(C)nc(N)n2)n1`, > 4 mM (inactive).
As to `COc1ccc(/C=N/n2cn[nH]c2=S)cc1`, the Kd was > 4 mM (inactive).
For the molecule `Oc1ccc(-n2cncn2)cc1`, the Kd is > 4 mM (inactive).
On to `COc1ccc(-c2cc(=O)c3cc(OC)ccc3o2)cc1`, for which the Kd is > 4 mM (inactive).
Regarding `C#CCCCCCCCCCCCC(O)CC(O)COC(C)=O` (stereo not drawn), the Kd was > 4 mM (inactive).
In the case of `CCOc1ccccc1C(=O)NC1=NCCS1`, the Kd was > 4 mM (inactive).
In the case of `NC(=O)c1ccc2c(c1)OCO2`, the Kd is > 4 mM (inactive).
As for `FC(F)(F)c1cc(-c2ccco2)nc(N2CCOCC2)n1`, the figure is > 4 mM (inactive); as for `CCC(=O)n1nc(-c2ccco2)nc1N`, > 4 mM (inactive).
In the case of `C=C1C2=CC(=O)O[C@@H](c3ccoc3)[C@]2(C)CCC1[C@@]1(C)C=CC(=O)C(C)(C)[C@@H]1CC(=O)OC` (stereo partly drawn), the Kd was > 4 mM (inactive).
Turning to `O=C(Cc1cccs1)Nc1ccccn1`, the Kd is > 4 mM (inactive).
On to `CC1(C)C(=O)[C@@H]2C[C@@]3(O)C4=CC(=O)O[C@@H](c5ccoc5)[C@]4(C)CCC3C(C)(C2=O)[C@H]1CC(=O)O` (stereo partly drawn), for which the Kd is > 4 mM (inactive).
As for `CN1C(=O)C2CC=C(Cl)CC2C1=O` (stereo not drawn), the figure is > 4 mM (inactive); as for `O=C1CCCC(=O)N1Cc1ccco1`, > 4 mM (inactive).
As to `COc1cc([C@@H]2c3cc4c(cc3[C@H](O)[C@H]3COC(=O)[C@@H]23)OCO4)cc(OC)c1OC`, the Kd was > 4 mM (inactive).
As for `Cc1[nH]ccc2c1[nH]c1cc(=O)ccc12`, the figure is > 4 mM (inactive); as for `Cc1n[nH]c(C)c1NC(=O)c1cccc(F)c1`, > 4 mM (inactive).
